26 compounds from patent publication US20250282785A1, “PYRROLIDINONE DERIVATIVES AS INHIBITORS OF NF KAPPA B INDUCING KINASE” (priority 2022, published 2025) can be followed below.

Like-named read-outs stand apart in the source and are kept apart here.

For experiment [1], the system named is p-IKKα levels in L363 (NIK translocated multiple myeloma) cells. The experiment can be described thus: Effect of compounds on p-IKKα levels in L363 cells (AlphaLISA SureFire Ultra). As to conditions: Homo sapiens, read-out: Assay 2 IC50. It counts as cell-based. An outline of the steps: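 Phospho-IKKα (Ser 176/180) was quantified by AlphaLISA in lysed L363 cells after 6 h compound exposure (0.3% DMSO, 11 points, 1:3) alongside 250 ng/ml BAFF and 10 uM MG132, following overnight BAFF priming in low-serum DMEM. Duplicate curves were scaled between BAFF/DMSO/MG132 and unstimulated DMSO wells, then fitted sigmoidally for IC50.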

Experiment [2] concerns the target Recombinant Human NF-Kappab-Inducing Kinase (NIK/MAP3K14) (Homo sapiens, UniProt Q99558). The experiment can be described thus: Inhibition of auto-phosphorylation of recombinant human NIK/MAP3K14 (AlphaScreen). It counts as biochemical. An outline of the steps: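 AlphaScreen read-out used anti-phospho-IKK Ser176/180 antibody after 2 h, 25 °C incubation of compound, 1 nM GST-NIK and 5 µM ATP (final DMSO 0.7%). Percent inhibition referenced to high (enzyme) and low (no enzyme, no ATP) controls; sigmoidal curve fitting gave IC50.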

Where [3] appears, read: L-363, L363 cells, BAFF stimulated, MG132, 6 h, average of values.
Where [4] appears, read: NIK/MAP3K14 auto-phosphorylation, 5 microM ATP, 1 nM enzyme, 2 h at 25° C., average of values, read-out: Assay 1 IC50.

Sequence of Recombinant Human NF-Kappab-Inducing Kinase (NIK/MAP3K14) (Q99558 whole entry): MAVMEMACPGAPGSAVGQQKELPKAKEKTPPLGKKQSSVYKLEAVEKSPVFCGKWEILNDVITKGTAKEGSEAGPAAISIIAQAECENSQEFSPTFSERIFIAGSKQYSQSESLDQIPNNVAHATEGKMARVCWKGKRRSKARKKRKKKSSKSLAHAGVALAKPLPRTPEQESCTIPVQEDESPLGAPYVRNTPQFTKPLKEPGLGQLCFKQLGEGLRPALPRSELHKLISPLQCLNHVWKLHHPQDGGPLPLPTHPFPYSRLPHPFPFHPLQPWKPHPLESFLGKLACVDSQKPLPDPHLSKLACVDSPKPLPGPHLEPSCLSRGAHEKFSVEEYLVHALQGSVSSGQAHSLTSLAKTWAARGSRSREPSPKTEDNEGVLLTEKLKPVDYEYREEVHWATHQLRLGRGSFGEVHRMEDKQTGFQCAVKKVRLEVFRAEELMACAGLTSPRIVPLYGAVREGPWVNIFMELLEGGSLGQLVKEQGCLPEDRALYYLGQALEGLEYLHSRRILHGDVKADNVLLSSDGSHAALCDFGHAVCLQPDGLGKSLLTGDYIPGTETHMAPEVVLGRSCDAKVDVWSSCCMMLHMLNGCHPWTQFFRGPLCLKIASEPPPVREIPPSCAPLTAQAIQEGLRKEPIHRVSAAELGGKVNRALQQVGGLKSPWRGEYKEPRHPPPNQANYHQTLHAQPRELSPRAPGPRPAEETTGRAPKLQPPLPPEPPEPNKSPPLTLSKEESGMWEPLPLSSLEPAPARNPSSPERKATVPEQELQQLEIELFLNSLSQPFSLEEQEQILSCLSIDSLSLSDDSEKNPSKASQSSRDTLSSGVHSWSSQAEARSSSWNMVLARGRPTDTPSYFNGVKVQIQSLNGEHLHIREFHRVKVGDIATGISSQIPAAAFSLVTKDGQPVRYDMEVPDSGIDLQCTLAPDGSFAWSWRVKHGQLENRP

Take `Cc1cn(-c2cccc(-c3cc([C@]4(O)CCN(C)C4=O)on3)c2)nc1C(N)=O` [Example 192, (R)-1-(3-(5-(3-Hydroxy-1-methyl-2-oxopyrrolidin-3-yl)isoxazol-3-yl)phenyl)-4-methyl-1H-pyrazole-3-carboxamide]: the figures for the IC50 in experiment [1] (setting [3]) and in experiment [2] (setting [4]) were over 0.501 µM and under 0.1 µM, respectively.

For the compound `CN1CC[C@@](O)(c2cc(-c3cccc(-n4ccc(C(N)=O)n4)c3)no2)C1=O` [Example 193, (R)-1-(3-(5-(3-Hydroxy-1-methyl-2-oxopyrrolidin-3-yl)isoxazol-3-yl)phenyl)-1H-pyrazole-3-carboxamide], the IC50 in experiment [1] (setting [3]) was over 0.501 µM; in experiment [2] (setting [4]), under 0.1 µM.

Take `CN1CC[C@@](O)(c2cc(-c3cccc(-n4cc(C(N)=O)cn4)n3)no2)C1=O` [Example 194, (R)-1-(6-(5-(3-Hydroxy-1-methyl-2-oxopyrrolidin-3-yl)isoxazol-3-yl)pyridin-2-yl)-1H-pyrazole-4-carboxamide]: the IC50 in experiment [1] (setting [3]) and in experiment [2] (setting [4]) was over 0.501 µM throughout.

For `CN1CC[C@@](O)(c2cc(-c3cccc(-n4cc(C(N)=O)c(N)n4)n3)no2)C1=O` [Example 195, (R)-3-Amino-1-(6-(5-(3-Hydroxy-1-methyl-2-oxopyrrolidin-3-yl)isoxazol-3-yl)pyridin-2-yl)-1H-pyrazole-4-carboxamide], the IC50 in experiment [1] (setting [3]) was over 0.501 µM; in experiment [2] (setting [4]), under 0.1 µM.

Take `CN1CC[C@@](O)(c2cc(-c3cccc(-c4cccc5c(=O)[nH]ccc45)n3)no2)C1=O` [Example 196, (R)-5-(6-(5-(3-Hydroxy-1-methyl-2-oxopyrrolidin-3-yl)isoxazol-3-yl)pyridin-2-yl)isoquinolin-1(2H)-one]: the IC50 in experiment [1] (setting [3]) was over 0.501 µM; in experiment [2] (setting [4]) it was under 0.1 µM.

For `CN1CC[C@@](O)(c2cc(-c3cccc(-c4cccc5c(=O)[nH]cnc45)c3)no2)C1=O` [Example 197, (R)-8-(3-(5-(3-Hydroxy-1-methyl-2-oxopyrrolidin-3-yl)isoxazol-3-yl)phenyl)quinazolin-4(3H)-one], the IC50 in experiment [1] (setting [3]) and in experiment [2] (setting [4]) was over 0.501 µM each time.

For the compound `CN1CC[C@@](O)(c2cc(-c3cccc(-c4cc(C(N)=O)ccn4)n3)no2)C1=O` [Example 198, (R)-6′-(5-(3-Hydroxy-1-methyl-2-oxopyrrolidin-3-yl)isoxazol-3-yl)-[2,2′-bipyridine]-4-carboxamide], the IC50 was over 0.501 µM in experiment [1] (setting [3]) and 0.1 to 0.5 µM in experiment [2] (setting [4]).

For `CN1CC[C@@](O)(c2cc(-c3cccc(-c4nc(C(N)=O)cs4)c3)no2)C1=O` [Example 204, (R)-2-(3-(5-(3-Hydroxy-1-methyl-2-oxopyrrolidin-3-yl)isoxazol-3-yl)phenyl)thiazole-4-carboxamide], the IC50 was over 0.501 µM in experiment [1] (setting [3]) and under 0.1 µM in experiment [2] (setting [4]).

Regarding `CN1CC[C@@](O)(c2cc(-c3cccc(-c4csc(C(N)=O)n4)c3)no2)C1=O` [Example 205, (R)-4-(3-(5-(3-Hydroxy-1-methyl-2-oxopyrrolidin-3-yl)isoxazol-3-yl)phenyl)thiazole-2-carboxamide], the figures for the IC50 in experiment [1] (setting [3]) and in experiment [2] (setting [4]) were over 0.501 µM and under 0.1 µM, respectively.

Consider `CN1CC[C@@](O)(c2cc(-c3cccc(-c4nc(C(N)=O)c(N)s4)c3)no2)C1=O` [Example 206, (R)-5-Amino-2-(3-(5-(3-hydroxy-1-methyl-2-oxopyrrolidin-3-yl)isoxazol-3-yl)phenyl)thiazole-4-carboxamide], for which the IC50 in experiment [1] (setting [3]) and in experiment [2] (setting [4]) was under 0.1 µM throughout.

On to `CN1CC[C@@](O)(c2cc(-c3cccc(-c4ccc(C(N)=O)o4)c3)no2)C1=O` [Example 207, (R)-5-(3-(5-(3-Hydroxy-1-methyl-2-oxopyrrolidin-3-yl)isoxazol-3-yl)phenyl)furan-2-carboxamide], for which the results for the IC50 in experiment [1] (setting [3]) and in experiment [2] (setting [4]) were over 0.501 µM and under 0.1 µM, respectively.

Turning to `CN1CC[C@@](O)(c2cc(-c3cccc(-c4nc(C(N)=O)c(C5CC5)s4)c3)no2)C1=O` [Example 208, (R)-5-Cyclopropyl-2-(3-(5-(3-hydroxy-1-methyl-2-oxopyrrolidin-3-yl)isoxazol-3-yl)phenyl)thiazole-4-carboxamide], the IC50 was 0.1 to 0.5 µM in experiment [1] (setting [3]) and under 0.1 µM in experiment [2] (setting [4]).

For `CNc1sc(-c2cccc(-c3cc([C@]4(O)CCN(C)C4=O)on3)c2)nc1C(N)=O` [Example 209, (R)-2-(3-(5-(3-Hydroxy-1-methyl-2-oxopyrrolidin-3-yl)isoxazol-3-yl)phenyl)-5-(methylamino)thiazole-4-carboxamide], the IC50 in experiment [1] (setting [3]) and in experiment [2] (setting [4]) was under 0.1 µM each time.

With `CN1CC[C@@](O)(c2cc(-c3cccc(-c4nc(C(N)=O)c(NC5COC5)s4)c3)no2)C1=O` [Example 210, (R)-2-(3-(5-(3-Hydroxy-1-methyl-2-oxopyrrolidin-3-yl)isoxazol-3-yl)phenyl)-5-(oxetan-3-ylamino)thiazole-4-carboxamide], the IC50 in experiment [1] (setting [3]) and in experiment [2] (setting [4]) was under 0.1 µM throughout.

`CN1CC[C@@](O)(c2cc(-c3cccc(-c4nc(C(N)=O)c(Nc5cnn(C)c5)s4)c3)no2)C1=O` [Example 211, (R)-2-(3-(5-(3-Hydroxy-1-methyl-2-oxopyrrolidin-3-yl)isoxazol-3-yl)phenyl)-5-((1-methyl-1H-pyrazol-4-yl)amino)thiazole-4-carboxamide]: the IC50 in experiment [1] (setting [3]) and in experiment [2] (setting [4]) was under 0.1 µM in each case.

Consider `CN1CC[C@@](O)(c2cc(-c3cccc(-c4ncc(C(N)=O)s4)c3)no2)C1=O` [Example 212, (R)-2-(3-(5-(3-hydroxy-1-methyl-2-oxopyrrolidin-3-yl)isoxazol-3-yl)phenyl)thiazole-5-carboxamide], for which the IC50 in experiment [1] (setting [3]) and in experiment [2] (setting [4]) was over 0.501 µM throughout.

With `COc1ncccc1Nc1sc(-c2cccc(-c3cc([C@]4(O)CCN(C)C4=O)on3)c2)nc1C(N)=O` [Example 213, (R)-2-(3-(5-(3-Hydroxy-1-methyl-2-oxopyrrolidin-3-yl)isoxazol-3-yl)phenyl)-5-((2-methoxypyridin-3-yl)amino)thiazole-4-carboxamide], the half-inhibitory concentration (IC50) in experiment [1] (setting [3]) and in experiment [2] (setting [4]) was under 0.1 µM in each case.

With `CN1CC[C@@](O)(c2cc(-c3cccc(-c4nc(C(N)=O)c(Br)s4)c3)no2)C1=O` [Example 215, (R)-5-Bromo-2-(3-(5-(3-hydroxy-1-methyl-2-oxopyrrolidin-3-yl)isoxazol-3-yl)phenyl)thiazole-4-carboxamide], the IC50 was over 0.501 µM in experiment [1] (setting [3]) and under 0.1 µM in experiment [2] (setting [4]).

With `CC(=O)N1CC(Nc2sc(-c3cccc(-c4cc([C@]5(O)CCN(C)C5=O)on4)c3)nc2C(N)=O)C1` [Example 216, (R)-5-((1-Acetylazetidin-3-yl)amino)-2-(3-(5-(3-hydroxy-1-methyl-2-oxopyrrolidin-3-yl)isoxazol-3-yl)phenyl)thiazole-4-carboxamide], the IC50 is over 0.501 µM in experiment [1] (setting [3]) and under 0.1 µM in experiment [2] (setting [4]).

In the case of `Cc1sc(-c2cccc(-c3cc([C@]4(O)CCN(C)C4=O)on3)c2)nc1C(N)=O` [Example 217, (R)-2-(3-(5-(3-Hydroxy-1-methyl-2-oxopyrrolidin-3-yl)isoxazol-3-yl)phenyl)-5-methylthiazole-4-carboxamide], the results for the IC50 in experiment [1] (setting [3]) and in experiment [2] (setting [4]) were 0.1 to 0.5 µM and under 0.1 µM, respectively.

As to `CCc1sc(-c2cccc(-c3cc([C@]4(O)CCN(C)C4=O)on3)c2)nc1C(N)=O` [Example 218, (R)-5-Ethyl-2-(3-(5-(3-hydroxy-1-methyl-2-oxopyrrolidin-3-yl)isoxazol-3-yl)phenyl)thiazole-4-carboxamide], the concentration for half-maximal inhibition (IC50) in experiment [1] (setting [3]) is 0.1 to 0.5 µM; in experiment [2] (setting [4]) it was under 0.1 µM.

Take `CC(C)c1sc(-c2cccc(-c3cc([C@]4(O)CCN(C)C4=O)on3)c2)nc1C(N)=O` [Example 219, (R)-2-(3-(5-(3-Hydroxy-1-methyl-2-oxopyrrolidin-3-yl)isoxazol-3-yl)phenyl)-5-isopropylthiazole-4-carboxamide]: the IC50 is over 0.501 µM in experiment [1] (setting [3]) and under 0.1 µM in experiment [2] (setting [4]).

Turning to `CC(C)Cc1sc(-c2cccc(-c3cc([C@]4(O)CCN(C)C4=O)on3)c2)nc1C(N)=O` [Example 220, (R)-2-(3-(5-(3-Hydroxy-1-methyl-2-oxopyrrolidin-3-yl)isoxazol-3-yl)phenyl)-5-isobutylthiazole-4-carboxamide], the concentration for half-maximal inhibition (IC50) in experiment [1] (L-363, 6 h) was over 0.501 µM; in experiment [2], under 0.1 µM.

For the compound `CN1CC[C@@](O)(c2cc(-c3cccc(-c4nc(C(N)=O)c(C5CCC5)s4)c3)no2)C1=O` [Example 221, (R)-5-Cyclobutyl-2-(3-(5-(3-hydroxy-1-methyl-2-oxopyrrolidin-3-yl)isoxazol-3-yl)phenyl)thiazole-4-carboxamide], the figures for the IC50 in experiment [1] (setting [3]) and in experiment [2] (setting [4]) were over 0.501 µM and under 0.1 µM, respectively.

On to `CN1CC[C@@](O)(c2cc(-c3cccc(-c4nc(C(N)=O)c(C(F)F)s4)c3)no2)C1=O` [Example 222, (R)-5-(Difluoromethyl)-2-(3-(5-(3-hydroxy-1-methyl-2-oxopyrrolidin-3-yl)isoxazol-3-yl)phenyl)thiazole-4-carboxamide], for which the IC50 in experiment [1] (setting [3]) was 0.1 to 0.5 µM; in experiment [2] (setting [4]), under 0.1 µM.

As to `CN1CC[C@@](O)(c2cc(-c3cccc(-c4nc(C(N)=O)c(CNC5CCCC5)s4)c3)no2)C1=O` [Example 223, (R)-5-((Cyclopentylamino)methyl)-2-(3-(5-(3-hydroxy-1-methyl-2-oxopyrrolidin-3-yl)isoxazol-3-yl)phenyl)thiazole-4-carboxamide], the IC50 is over 0.501 µM in experiment [1] (setting [3]) and under 0.1 µM in experiment [2] (setting [4]).
